Laboratory results: US20220064141A1, “BENZOPYRIDONE HETEROCYCLIC COMPOUND AND USE THEREOF” (BrightGene Bio-Medical Technology Co., Ltd., priority 2019, published 2022)

system: NCI-H358 human non-small cell lung cancer cell with KRAS G12C mutation; assay: Cell Titer-Glo cell viability, NCI-H358 cells (72 h); format: cell-based; conditions: Homo sapiens, NCI-H358, 72 h, class symbols
From the text: Effect Example 1: Pharmacodynamic Assay 1 (Determination of the efficacy of the compounds of the present disclosure on NCI-H358 human non-small cell lung cancer cell with KRAS G12C mutation)
The following method was used to determine the effect of the compounds of the present disclosure on tumor cell proliferation.
For the KRAS G12C subtype, NCI-H358 non-small cell lung cancer cells with KRAS G12C mutation were used to determine the efficacy of the compounds in inhibiting cancer cell viability. NCI-H358 cells were cultured in a DMEM medium containing 10% fetal bovine serum, 100 U penicillin and […] streptomycin. The cells were cultured in an incubator with 5% CO2 at 37° C. Cancer cell viability was evaluated by determining the content of ATP with Cell Titer-Glo® kit (Luminescent Cell Viability Assay kit, please refer to the manufacturer's instructions for use) and evaluating the inhibition of cell growth.
The experimental method was proceeded in accordance with the steps in the instructions for the kit, and was described briefly as follows. The test compounds were first dissolved in DMSO to prepare stock solutions, and then the stock solutions were subjected to gradient dilution with the culture media of the corresponding cells, thereby preparing test samples. The final concentrations of the compounds were in the range of 30 μM to 0.01 nM. Tumor cells in logarithmic growth phase were seeded into a 96-well cell culture plate at an appropriate density. After the cell culture plate was left overnight in an incubator with 5% CO2 at 37° C., the test compound samples were added thereto and then the cells were further cultured for 72 hours. After the incubation was complete, an appropriate volume of Cell Titer-Glo® reagent was added into each well, and the cells were incubated at 37° C. for 1 to 4 hours. Then, the […] was read on a microplate reader.

| SMILES | IC50 [nM] |
| --- | --- |
| C=CC(=O)N1CCN(c2c(C#N)c(=O)n(-c3ccccc3C(C)C)c3cc(-c4ccccc4Cl)c(Cl)cc23)[C@@H](C)C1 [Compound I-18] | 100 to 1000 |
| C=CC(=O)N1CCN(c2c(C#N)c(=O)n(-c3ccccc3C(C)C)c3cc(-c4ccccc4C#N)c(Cl)cc23)[C@@H](C)C1 [Compound I-19] | > 1000 |
| C=CC(=O)N1CCN(c2c(C#N)c(=O)n(-c3ccccc3C(C)C)c3cc(-c4cccc5c4oc4ccccc45)c(Cl)cc23)[C@@H](C)C1 [Compound I-20] | 100 to 1000 |
| C=CC(=O)N1CCN(c2c(C#N)c(=O)n(-c3ccccc3C(C)C)c3cc(-c4c(C)cnn4C)c(Cl)cc23)[C@@H](C)C1 [Compound I-21] | 100 to 1000 |
| C=CC(=O)N1CCN(c2c(C#N)c(=O)n(-c3ccccc3C(C)C)c3cc(-c4ccc(F)c5ccccc45)c(Cl)cc23)[C@@H](C)C1 [Compound I-22] | < 100 |
| C=CC(=O)N1CCN(c2c(C#N)c(=O)n(-c3ccccc3C(C)C)c3cc(-c4cccc5ccncc45)c(Cl)cc23)[C@@H](C)C1 [Compound I-23] | 100 to 1000 |
| C=CC(=O)N1CCN(c2c(C#N)c(=O)n(-c3ccccc3C(C)C)c3cc(-c4ccc(Cl)c5ccccc45)c(Cl)cc23)[C@@H](C)C1 [Compound I-24] | < 100 |
| CCn1nccc1-c1cc2c(cc1Cl)c(N1CCN(C(C)=O)C[C@@H]1C)c(C#N)c(=O)n2-c1ccccc1C(C)C [Compound I-25] | 100 to 1000 |
| C=CC(=O)N1CCN(c2c(C#N)c(=O)n(-c3ccccc3C(C)C)c3cc(-c4cccc5c4OCCO5)c(Cl)cc23)[C@@H](C)C1 [Compound I-26] | 100 to 1000 |
| C=CC(=O)N1CCN(c2c(C#N)c(=O)n(-c3ccccc3C(C)C)c3cc(-c4cnc(C5CC5)nc4)c(Cl)cc23)[C@@H](C)C1 [Compound I-27] | 100 to 1000 |
| C=CC(=O)N1CCN(c2c(C#N)c(=O)n(-c3ccccc3C(C)C)c3cc(-c4cc(C)c(C)cc4C)c(Cl)cc23)[C@@H](C)C1 [Compound I-28] | > 1000 |
| C=CC(=O)N1CCN(c2c(C#N)c(=O)n(-c3ccccc3C(C)C)c3cc(-c4ccc(Cl)c(Cl)c4C)c(Cl)cc23)[C@@H](C)C1 [Compound I-29] | 100 to 1000 |
| C=CC(=O)N1CCN(c2c(C#N)c(=O)n(-c3ccccc3C(C)C)c3cc(-c4cnc(OC)cc4C)c(Cl)cc23)[C@@H](C)C1 [Compound I-30] | > 1000 |
| C=CC(=O)N1CCN(c2c(C#N)c(=O)n(-c3ccccc3C(C)C)c3cc(-c4c(OC)ccc5ccccc45)c(Cl)cc23)[C@@H](C)C1 [Compound I-31] | < 100 |
| C=CC(=O)N1CCN(c2c(C#N)c(=O)n(-c3ccccc3C(C)C)c3cc(-c4cnc(F)cc4C)c(Cl)cc23)[C@@H](C)C1 [Compound I-32] | 100 to 1000 |
| C=CC(=O)N1CCN(c2c(C#N)c(=O)n(-c3ccccc3C(C)C)c3cc(-c4c(C)noc4C)c(Cl)cc23)[C@@H](C)C1 [Compound I-34] | > 1000 |
| C=CC(=O)N1CCN(c2c(C#N)c(=O)n(-c3ccccc3C(C)C)c3cc(-c4c(N)ccc(Cl)c4F)c(Cl)cc23)[C@@H](C)C1 [Compound I-35] | < 100 |
| C=CC(=O)N1CCN(c2c(C#N)c(=O)n(-c3ccccc3C(C)C)c3cc(-c4cccc(Cl)c4F)c(Cl)cc23)[C@@H](C)C1 [Compound I-36] | 100 to 1000 |
| C=CC(=O)N1CCN(c2c(C#N)c(=O)n(-c3ccccc3C(C)C)c3cc(-c4cc(Cl)ccc4F)c(Cl)cc23)[C@@H](C)C1 [Compound I-37] | 100 to 1000 |
| C=CC(=O)N1CCN(c2c(C#N)c(=O)n(-c3ccccc3C(C)C)c3cc(-c4ccc(Cl)cc4Cl)c(Cl)cc23)[C@@H](C)C1 [Compound I-38] | 100 to 1000 |
| C=CC(=O)N1CCN(c2c(C#N)c(=O)n(-c3ccccc3C(C)C)c3cc(-c4cc(Cl)cc(Cl)c4)c(Cl)cc23)[C@@H](C)C1 [Compound I-39] | 100 to 1000 |
| C=CC(=O)N1CCN(c2c(C#N)c(=O)n(-c3ccccc3C(C)C)c3cc(-c4ccc(C(F)(F)F)nc4)c(Cl)cc23)[C@@H](C)C1 [Compound I-40] | > 1000 |
| C=CC(=O)N1CCN(c2c(C#N)c(=O)n(-c3ccccc3C(C)C)c3cc(-c4cccc(N)n4)c(Cl)cc23)[C@@H](C)C1 [Compound I-41] | 100 to 1000 |
| C=CC(=O)N1CCN(c2c(C#N)c(=O)n(-c3ccccc3C(C)C)c3cc(-c4ccc(Cl)cc4F)c(Cl)cc23)[C@@H](C)C1 [Compound I-42] | 100 to 1000 |
| C=CC(=O)N1CCN(c2c(C#N)c(=O)n(-c3ccccc3C(C)C)c3cc(-c4cc(Cl)ccc4N)c(Cl)cc23)[C@@H](C)C1 [Compound I-43] | < 100 |
| C=CC(=O)N1CCN(c2c(C#N)c(=O)n(-c3ccccc3C(C)C)c3cc(-c4cccc(C(C)=O)c4)c(Cl)cc23)[C@@H](C)C1 [Compound I-44] | 100 to 1000 |

| SMILES | IC50 [nM] |
| --- | --- |
| C=CC(=O)N1CCN(c2c(C#N)c(=O)n(-c3ccccc3C(C)C)c3cc(-c4ccc(N)cc4F)c(Cl)cc23)[C@@H](C)C1 [Compound I-45] | 100 to 1000 |
| C=CC(=O)N1CCN(c2c(C#N)c(=O)n(-c3ccccc3C(C)C)c3cc(-c4ccccc4C(F)(F)F)c(Cl)cc23)[C@@H](C)C1 [Compound I-46] | > 1000 |
| C=CC(=O)N1CCN(c2c(C#N)c(=O)n(-c3ccccc3C(C)C)c3cc(-c4ccc5c(c4)CC5)c(Cl)cc23)[C@@H](C)C1 [Compound I-47] | 100 to 1000 |
| C=CC(=O)N1CCN(c2c(C#N)c(=O)n(-c3ccccc3C(C)C)c3cc(-c4c(C)cccc4C)c(Cl)cc23)[C@@H](C)C1 [Compound I-48] | 100 to 1000 |
| C=CC(=O)N1CCN(c2c(C#N)c(=O)n(-c3ccccc3C(C)C)c3cc(-c4cc(C#N)ccc4C)c(Cl)cc23)[C@@H](C)C1 [Compound I-49] | 100 to 1000 |
| C=CC(=O)N1CCN(c2c(C#N)c(=O)n(-c3ccccc3C(C)C)c3cc(-c4ccc(C#N)cc4C)c(Cl)cc23)[C@@H](C)C1 [Compound I-50] | 100 to 1000 |
| C=CC(=O)N1CCN(c2c(C#N)c(=O)n(-c3ccccc3C(C)C)c3cc(-c4coc5ccccc45)c(Cl)cc23)[C@@H](C)C1 [Compound I-51] | 100 to 1000 |
| C=CC(=O)N1CCN(c2c(C#N)c(=O)n(-c3ccccc3C(C)C)c3cc(-c4ccnc5[nH]ccc45)c(Cl)cc23)[C@@H](C)C1 [Compound I-52] | 100 to 1000 |
| C=CC(=O)N1CCN(c2c(C#N)c(=O)n(-c3ccccc3C(C)C)c3cc(-c4ccc(C5CC5)cc4)c(Cl)cc23)[C@@H](C)C1 [Compound I-53] | 100 to 1000 |
| C=CC(=O)N1CCN(c2c(C#N)c(=O)n(-c3ccccc3C(C)C)c3cc(-c4cn[nH]c4)c(Cl)cc23)[C@@H](C)C1 [Compound I-54] | 100 to 1000 |
| C=CC(=O)N1CCN(c2c(C#N)c(=O)n(-c3ccccc3C(C)C)c3cc(-c4cccc5ccoc45)c(Cl)cc23)[C@@H](C)C1 [Compound I-55] | 100 to 1000 |
| C=CC(=O)N1CCN(c2c(C#N)c(=O)n(-c3ccccc3C(C)C)c3cc(-c4ccc(N)nc4C)c(Cl)cc23)[C@@H](C)C1 [Compound I-56] | 100 to 1000 |
| C=CC(=O)N1CCN(c2c(C#N)c(=O)n(-c3ccccc3C(C)C)c3cc(-c4ccc(Cl)cc4N)c(Cl)cc23)[C@@H](C)C1 [Compound I-57] | < 100 |
| C=CC(=O)N1CCN(c2c(C#N)c(=O)n(-c3ccccc3C(C)C)c3cc(-c4cnn(CCO)c4)c(Cl)cc23)[C@@H](C)C1 [Compound I-58] | 100 to 1000 |
| C=CC(=O)N1CCN(c2c(C#N)c(=O)n(-c3ccccc3C(C)C)c3cc(-c4cncc(N)c4)c(Cl)cc23)[C@@H](C)C1 [Compound I-59] | > 1000 |
| C=CC(=O)N1CCN(c2c(C#N)c(=O)n(-c3ccccc3C(C)C)c3cc(-c4ccc(C#N)cc4N)c(Cl)cc23)[C@@H](C)C1 [Compound I-60] | 100 to 1000 |
| C=CC(=O)N1CCN(c2c(C#N)c(=O)n(-c3ccccc3C(C)C)c3cc(-c4ccc(F)cc4O)c(Cl)cc23)[C@@H](C)C1 [Compound I-61] | < 100 |
| C=CC(=O)N1CCN(c2c(C#N)c(=O)n(-c3ccccc3C(C)C)c3cc(-c4cnc(N)nc4)c(Cl)cc23)[C@@H](C)C1 [Compound I-62] | 100 to 1000 |
| C=CC(=O)N1CCN(c2c(C#N)c(=O)n(-c3ccccc3C(C)C)c3cc(-c4ccc(F)cc4CO)c(Cl)cc23)[C@@H](C)C1 [Compound I-63] | 100 to 1000 |
| C=CC(=O)N1CCN(c2c(C#N)c(=O)n(-c3ccccc3C(C)C)c3cc(-c4ccc(N)nc4)c(Cl)cc23)[C@@H](C)C1 [Compound I-64] | 100 to 1000 |
| C=CC(=O)N1CCN(c2c(C#N)c(=O)n(-c3ccccc3C(C)C)c3cc(-c4ccccc4CO)c(Cl)cc23)[C@@H](C)C1 [Compound I-65] | 100 to 1000 |
| C=CC(=O)N1CCN(c2c(C#N)c(=O)n(-c3ccccc3C(C)C)c3cc(-c4cc(C)ccc4O)c(Cl)cc23)[C@@H](C)C1 [Compound I-66] | < 100 |
| C=CC(=O)N1CCN(c2c(C#N)c(=O)n(-c3ccccc3C(C)C)c3cc(-c4ccc(C)c(O)c4)c(Cl)cc23)[C@@H](C)C1 [Compound I-67] | 100 to 1000 |
| C=CC(=O)N1CCN(c2c(C#N)c(=O)n(-c3ccccc3C(C)C)c3cc(-c4ccn(C)c(=O)c4)c(Cl)cc23)[C@@H](C)C1 [Compound I-68] | 100 to 1000 |
| C=CC(=O)N1CCN(c2c(C#N)c(=O)n(-c3ccccc3C(C)C)c3cc(-c4cc(F)ccc4N)c(Cl)cc23)[C@@H](C)C1 [Compound I-69] | < 100 |
